Measured values published in the NIST ThermoML archive (doi:10.1021/je800831d).
Numbers after ± are expanded uncertainties.

Columns and labels:
[1] = xn = mol fraction of the nth substance listed; conditions: 101 kPa, Liquid
[2] = 101 kPa, Liquid

CCCCCCCO [heptan-1-ol] + C1CCCC1
[1], x2 = 0
Conditions	mass density [kg/m3]
298.15 K	818.813 ± 0.44
308.15 K	811.73 ± 0.45

C1CCCC1 [cyclopentane]
[2]
Conditions	mass density [kg/m3]
298.15 K	733.634 ± 0.57
308.15 K	726.571 ± 0.58

C1CCCC1 [cyclopentane] + CCCCCCCO
mass density [kg/m3], [1]
Conditions	298.15 K	308.15 K
x1 = 0.0632	815.837 ± 0.45	808.629 ± 0.46
x1 = 0.1965	808.334 ± 0.46	800.856 ± 0.47
x1 = 0.3173	800.287 ± 0.47	792.895 ± 0.48
x1 = 0.4244	793.064 ± 0.48	785.675 ± 0.49
x1 = 0.4606	790.282 ± 0.48	782.889 ± 0.49
x1 = 0.5084	786.531 ± 0.49	779.091 ± 0.5
x1 = 0.6664	772.628 ± 0.51	764.753 ± 0.52
x1 = 0.7675	762.185 ± 0.53	754.805 ± 0.54
x1 = 0.8534	752.769 ± 0.54	745.466 ± 0.55
x1 = 0.9644	739.018 ± 0.56	731.663 ± 0.57
x1 = 1	733.634 ± 0.57	726.571 ± 0.58

CCCO [propan-1-ol] + C1CCCC1
[1], x2 = 0
Conditions	mass density [kg/m3]
298.15 K	799.813 ± 0.47
308.15 K	791.692 ± 0.48

C1CCCC1 [cyclopentane] + CCCCCO
mass density [kg/m3], [1]
Conditions	298.15 K	308.15 K
x1 = 0.0155	810.22 ± 0.45	802.763 ± 0.46
x1 = 0.1886	799.34 ± 0.47	791.417 ± 0.48
x1 = 0.2742	793.439 ± 0.48	785.673 ± 0.49
x1 = 0.3746	786.395 ± 0.49	778.336 ± 0.5
x1 = 0.3884	785.467 ± 0.49	777.389 ± 0.5
x1 = 0.4798	779.082 ± 0.5	770.553 ± 0.51
x1 = 0.5738	771.559 ± 0.51	763.458 ± 0.52
x1 = 0.6868	762.096 ± 0.53	754.298 ± 0.54
x1 = 0.7543	756.486 ± 0.53	748.638 ± 0.55
x1 = 0.8131	751.07 ± 0.54	743.306 ± 0.55
x1 = 0.9079	742.377 ± 0.56	735.151 ± 0.56
x1 = 1	733.634 ± 0.57	726.571 ± 0.58

CCCCCCCO [heptan-1-ol]
[2]
Conditions	mass density [kg/m3]
298.15 K	818.813 ± 0.44
308.15 K	811.73 ± 0.45

CCCO [propan-1-ol]
[2]
Conditions	mass density [kg/m3]
298.15 K	799.813 ± 0.47
308.15 K	791.692 ± 0.48

C1CCCC1 [cyclopentane] + CCCO
mass density [kg/m3], [1]
Conditions	298.15 K	308.15 K
x1 = 0.0553	795.275 ± 0.48	786.98 ± 0.49
x1 = 0.1627	786.754 ± 0.49	778.045 ± 0.5
x1 = 0.2341	781.37 ± 0.5	772.538 ± 0.51
x1 = 0.3137	775.778 ± 0.51	766.718 ± 0.52
x1 = 0.4691	764.862 ± 0.52	755.363 ± 0.54
x1 = 0.5666	758.623 ± 0.53	748.897 ± 0.55
x1 = 0.6338	754.486 ± 0.54	744.566 ± 0.55
x1 = 0.7688	746.451 ± 0.55	737.144 ± 0.56
x1 = 0.8446	742.132 ± 0.56	733.21 ± 0.57
x1 = 0.9167	738.181 ± 0.56	729.51 ± 0.57
x1 = 1	733.634 ± 0.57	726.571 ± 0.58

CCCCCO [pentan-1-ol]
[2]
Conditions	mass density [kg/m3]
298.15 K	811.037 ± 0.45
308.15 K	803.683 ± 0.46

CCCCCO [pentan-1-ol] + C1CCCC1
[1], x2 = 0
Conditions	mass density [kg/m3]
298.15 K	811.037 ± 0.45
308.15 K	803.683 ± 0.46
